The values that follow come from PubChem BioAssay AID180 (DTP/NCI, 2004).

Several values for one entry are separate records, joined by “and”; a condition that tells them apart may be missing. Identical values can stand only once.

For the test, the system named is BDF1 mice, Adenocarcinoma 755 s.c., tumor weight T/C. In words: NCI In Vivo Anticancer Drug Screen. Data for tumor model Adenocarcinoma 755 (subcutaneous) in B6D2F1 (BDF1) mice. Particulars: endpoint: mean tumor weight, higher = larger tumour. An outline of the steps: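 Transplantable tumor implanted; mice dosed with compound or vehicle; survival or tumor size recorded; ratio of treated to vehicle control reported.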

The mark [1] stands for this setting: dose: 125.0 mg/kg/injection, schedule: Q01DX011 (ip), vehicle: methylcellulose (MC).
The mark [2] stands for this setting: dose: 25.0 mg/kg/injection, schedule: Q01DX011 (ip), vehicle: carboxymethylcellulose (CMC).

The term T/C denotes the result in the treated group divided by that in the control group, in per cent. With `Nc1nc(Cl)cc(Nc2ccc(CCO)cc2)n1`, the T/C reads like this: (dose: 15.0 mg/kg/injection, schedule: Q01DX011 (ip), vehicle: methylcellulose (MC)) 101 % of control; (dose: 62.0 mg/kg/injection, schedule: Q01DX011 (ip), vehicle: methylcellulose (MC)) 77 % of control; under setting [1], 102 % of control.
As to `Nc1ncnc2c1ncn2C1CCCO1` (stereo unspecified), the T/C reads like this: (dose: 18.7 mg/kg/injection, schedule: Q01DX011 (ip), vehicle: saline) 111 % of control; (dose: 37.5 mg/kg/injection, schedule: Q01DX011 (ip), vehicle: saline) 120 % of control; (dose: 75.0 mg/kg/injection, schedule: Q01DX011 (ip), vehicle: saline) 119 % of control; (dose: 150.0 mg/kg/injection, schedule: Q01DX011 (ip), vehicle: saline) 52 % of control; (dose: 300.0 mg/kg/injection, schedule: Q01DX011 (ip), vehicle: saline) 23 % of control.
In the case of `CN1CC(=O)NC1=O`, the T/C is 105 % of control (dose: 250.0 mg/kg/injection, schedule: Q01DX011 (ip), vehicle: saline); 93 % of control (dose: 500.0 mg/kg/injection, schedule: Q01DX011 (ip), vehicle: saline); 81 % of control (dose: 1000.0 mg/kg/injection, schedule: Q01DX011 (ip), vehicle: saline).
As for `N#CSc1ncnc2nc[nH]c12`, the T/C is 67 % of control (dose: 0.4 mg/kg/injection, schedule: Q01DX011 (ip), vehicle: water); 20 % of control and 33 % of control (dose: 1.0 mg/kg/injection, schedule: Q01DX011 (ip), vehicle: alkali diluted with saline); 10 % of control (dose: 1.0 mg/kg/injection, schedule: Q01DX011 (ip), vehicle: saline); 8 % of control (dose: 1.3 mg/kg/injection, schedule: Q01DX011 (ip), vehicle: water); 4 % of control (dose: 1.75 mg/kg/injection, schedule: Q01DX011 (ip), vehicle: water); 1 % of control and 11 % of control (dose: 2.0 mg/kg/injection, schedule: Q01DX011 (ip), vehicle: alkali diluted with saline). Moreover, the T/C (dose: 2.0 mg/kg/injection, schedule: Q01DX011 (ip), vehicle: saline) is 1 % of control; the T/C (dose: 4.0 mg/kg/injection, schedule: Q01DX011 (ip), vehicle: alkali diluted with saline) was 2 % of control; the T/C (dose: 4.0 mg/kg/injection, schedule: Q01DX011 (ip), vehicle: saline) is 1 % of control; the T/C (dose: 7.0 mg/kg/injection, schedule: Q01DX011 (ip), vehicle: water) is 1 % of control; the T/C (dose: 8.0 mg/kg/injection, schedule: Q01DX011 (ip), vehicle: saline) is 1 % of control.
As for `Cn1c(=O)c2[nH]c(N/N=C/c3ccc(Br)cc3)nc2n(C)c1=O`, the T/C (dose: 30.0 mg/kg/injection, schedule: Q01DX011 (ip), vehicle: carboxymethylcellulose (CMC)) was 109 % of control; the T/C (dose: 60.0 mg/kg/injection, schedule: Q01DX011 (ip), vehicle: carboxymethylcellulose (CMC)) was 106 % of control; the T/C (dose: 120.0 mg/kg/injection, schedule: Q01DX011 (ip), vehicle: carboxymethylcellulose (CMC)) was 92 % of control and 116 % of control; the T/C (dose: 240.0 mg/kg/injection, schedule: Q01DX011 (ip), vehicle: carboxymethylcellulose (CMC)) was 104 % of control and 88 % of control; the T/C (dose: 480.0 mg/kg/injection, schedule: Q01DX011 (ip), vehicle: carboxymethylcellulose (CMC)) is 97 % of control.
Regarding `CCNc1nncs1`, the T/C was 65 % of control (dose: 8.63 mg/kg/injection, schedule: Q01DX011 (ip), vehicle: carboxymethylcellulose (CMC)); 73 % of control (dose: 14.22 mg/kg/injection, schedule: Q01DX011 (ip), vehicle: carboxymethylcellulose (CMC)); 77 % of control (dose: 17.25 mg/kg/injection, schedule: Q01DX011 (ip), vehicle: carboxymethylcellulose (CMC)); 84 % of control (dose: 28.45 mg/kg/injection, schedule: Q01DX011 (ip), vehicle: carboxymethylcellulose (CMC)); 62 % of control (dose: 31.25 mg/kg/injection, schedule: Q01DX011 (ip), vehicle: methylcellulose (MC)); 101 % of control (dose: 34.5 mg/kg/injection, schedule: Q01DX011 (ip), vehicle: carboxymethylcellulose (CMC)). Moreover, the T/C is, setting by setting: (dose: 56.9 mg/kg/injection, schedule: Q01DX011 (ip), vehicle: carboxymethylcellulose (CMC)) 89 % of control and 80 % of control and 84 % of control; (dose: 62.5 mg/kg/injection, schedule: Q01DX011 (ip), vehicle: methylcellulose (MC)) 49 % of control; (dose: 69.0 mg/kg/injection, schedule: Q01DX011 (ip), vehicle: carboxymethylcellulose (CMC)) 103 % of control; (dose: 75.8 mg/kg/injection, schedule: Q01DX011 (ip), vehicle: carboxymethylcellulose (CMC)) 58 % of control and 75 % of control; under setting [1], 6 % of control.
Take `C[C@]12CC[C@@H]3c4ccc(OC(=O)c5ccccc5)cc4CC[C@H]3[C@@H]1CC[C@@H]2O`: the T/C reads like this: (dose: 77.31 mg/kg/injection, schedule: Q01DX011 (sc), vehicle: steriod suspending solution) 81 % of control; (dose: 125.0 mg/kg/injection, schedule: Q01DX011 (sc), vehicle: steriod suspending solution) 66 % of control; (dose: 154.63 mg/kg/injection, schedule: Q01DX011 (sc), vehicle: steriod suspending solution) 94 % of control; (dose: 250.0 mg/kg/injection, schedule: Q01DX011 (sc), vehicle: steriod suspending solution) 87 % of control; (dose: 309.25 mg/kg/injection, schedule: Q01DX011 (sc), vehicle: steriod suspending solution) 72 % of control; (dose: 500.0 mg/kg/injection, schedule: Q01DX011 (sc), vehicle: steriod suspending solution) 84 % of control. For the same molecule, the T/C reads like this: (dose: 618.5 mg/kg/injection, schedule: Q01DX011 (sc), vehicle: steriod suspending solution) 91 % of control; (dose: 1000.0 mg/kg/injection, schedule: Q01DX011 (sc), vehicle: steriod suspending solution) 54 % of control.
For the molecule `ClCCn1cnc2c(SCc3ccccc3)ncnc21`, the T/C by setting is: (dose: 0.5 mg/kg/injection, schedule: Q01DX011 (ip), vehicle: other) 115 % of control; (dose: 0.5 mg/kg/injection, schedule: Q01DX011 (oral), vehicle: other) 98 % of control; (dose: 1.0 mg/kg/injection, schedule: Q01DX011 (ip), vehicle: other) 72 % of control; (dose: 1.0 mg/kg/injection, schedule: Q01DX011 (oral), vehicle: other) 79 % of control; (dose: 2.0 mg/kg/injection, schedule: Q01DX011 (ip), vehicle: other) 67 % of control; (dose: 2.0 mg/kg/injection, schedule: Q01DX011 (oral), vehicle: other) 72 % of control. Further, the T/C reads like this: (dose: 4.0 mg/kg/injection, schedule: Q01DX011 (ip), vehicle: other) 36 % of control; (dose: 4.0 mg/kg/injection, schedule: Q01DX011 (oral), vehicle: other) 40 % of control; (dose: 8.0 mg/kg/injection, schedule: Q01DX011 (ip), vehicle: other) 3 % of control; (dose: 15.0 mg/kg/injection, schedule: Q01DX011 (ip), vehicle: other) 3 % of control; (dose: 15.0 mg/kg/injection, schedule: Q01DX011 (oral), vehicle: other) 7 % of control; under setting [2], 1 % of control. Besides, the T/C (dose: 50.0 mg/kg/injection, schedule: Q01DX011 (ip), vehicle: carboxymethylcellulose (CMC)) was 3 % of control.
For `Cc1cccc(N=Nc2c(S(=O)(=O)O)cc3cc(NC(=O)Nc4ccc5c(O)c(N=Nc6ccc7cc(S(=O)(=O)O)ccc7c6)c(S(=O)(=O)O)cc5c4)ccc3c2O)c1`, under “dose: 45.0 mg/kg/injection, schedule: Q01DX011 (ip), vehicle: carboxymethylcellulose (CMC)”, the T/C was 81 % of control.
Regarding `CCCn1cnc2c(=S)nc[nH]c21`, the T/C (dose: 0.25 mg/kg/injection, schedule: Q01DX011 (ip), vehicle: carboxymethylcellulose (CMC)) is 80 % of control; the T/C (dose: 1.0 mg/kg/injection, schedule: Q01DX011 (ip), vehicle: carboxymethylcellulose (CMC)) is 53 % of control; the T/C (dose: 3.0 mg/kg/injection, schedule: Q01DX011 (ip), vehicle: carboxymethylcellulose (CMC)) is 8 % of control and 11 % of control; the T/C (dose: 4.0 mg/kg/injection, schedule: Q01DX011 (ip), vehicle: carboxymethylcellulose (CMC)) was 7 % of control; the T/C (dose: 6.25 mg/kg/injection, schedule: Q01DX011 (ip), vehicle: carboxymethylcellulose (CMC)) was 6 % of control; the T/C (dose: 8.0 mg/kg/injection, schedule: Q01DX011 (ip), vehicle: carboxymethylcellulose (CMC)) is 10 % of control. The T/C was 5 % of control (dose: 12.5 mg/kg/injection, schedule: Q01DX011 (ip), vehicle: carboxymethylcellulose (CMC)); 4 % of control and 9 % of control (dose: 16.0 mg/kg/injection, schedule: Q01DX011 (ip), vehicle: carboxymethylcellulose (CMC)); 2 % of control under setting [2]; 7 % of control (dose: 31.0 mg/kg/injection, schedule: Q01DX011 (ip), vehicle: carboxymethylcellulose (CMC)); 6 % of control (dose: 62.0 mg/kg/injection, schedule: Q01DX011 (ip), vehicle: carboxymethylcellulose (CMC)).
